In PubChem BioAssay (NCI):
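Grown in 96-well plates, cells were treated for 48 hours with each compound at five concentrations. Insufficient inhibition: endpoint recorded as highest concentration tested. GI50 marks 50% less growth. TGI: total growth inhibition.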

Experiments:
Assay in all cases: NCI tumour cell line growth inhibition, 48 h
786-0 renal = system: 786-0 renal
MALME-3M melanoma = system: MALME-3M melanoma
SF-268 CNS = system: SF-268 CNS
UACC-62 melanoma = system: UACC-62 melanoma
MOLT-4 leukemia = system: MOLT-4 leukemia
M14 melanoma = system: M14 melanoma
NCI-H226 lung = system: NCI-H226 lung
HOP-92 NSCLC = system: HOP-92 NSCLC
MDA-MB-435 = system: MDA-MB-435
OVCAR-8 ovarian = system: OVCAR-8 ovarian
RXF 393 renal = system: RXF 393 renal
U251 CNS = system: U251 CNS
SNB-19 CNS = system: SNB-19 CNS
HL-60(TB) leukemia = system: HL-60(TB) leukemia
IGROV1 ovarian = system: IGROV1 ovarian
A498 renal = system: A498 renal
PC-3 prostate = system: PC-3 prostate
RPMI-8226 leukemia = system: RPMI-8226 leukemia
SK-MEL-5 melanoma = system: SK-MEL-5 melanoma
OVCAR-4 ovarian = system: OVCAR-4 ovarian
SF-295 CNS = system: SF-295 CNS
TK-10 renal = system: TK-10 renal
CCRF-CEM leukemia = system: CCRF-CEM leukemia
NCI-H460 lung = system: NCI-H460 lung
OVCAR-3 ovarian = system: OVCAR-3 ovarian
SF-539 CNS = system: SF-539 CNS
SK-OV-3 ovarian = system: SK-OV-3 ovarian
HT29 colon = system: HT29 colon
T-47D breast = system: T-47D breast
SN12C renal = system: SN12C renal
MCF7 breast = system: MCF7 breast
K-562 leukemia = system: K-562 leukemia
HCC-2998 colon = system: HCC-2998 colon
DU-145 prostate = system: DU-145 prostate
HOP-62 NSCLC = system: HOP-62 NSCLC
HS 578T breast = system: HS 578T breast
NCI/ADR-RES ovarian = system: NCI/ADR-RES ovarian
SK-MEL-2 melanoma = system: SK-MEL-2 melanoma
CAKI-1 renal = system: CAKI-1 renal
OVCAR-5 ovarian = system: OVCAR-5 ovarian
BT-549 breast = system: BT-549 breast
HCT-15 colon = system: HCT-15 colon
A549 NSCLC = system: A549 NSCLC
SW-620 colon = system: SW-620 colon
UO-31 renal = system: UO-31 renal
ACHN renal = system: ACHN renal
LOX IMVI melanoma = system: LOX IMVI melanoma
HCT-116 colon = system: HCT-116 colon
EKVX NSCLC = system: EKVX NSCLC
NCI-H522 lung = system: NCI-H522 lung
SR leukemia = system: SR leukemia
KM12 colon = system: KM12 colon
SK-MEL-28 melanoma = system: SK-MEL-28 melanoma
MDA-MB-231 breast = system: MDA-MB-231 breast
SNB-75 CNS = system: SNB-75 CNS
NCI-H23 lung = system: NCI-H23 lung
COLO 205 colon = system: COLO 205 colon
UACC-257 melanoma = system: UACC-257 melanoma

SMILES: C=CC(=O)N1C[C@H](COc2nc(Nc3cnn(C)c3)nc3[nH]cc(Cl)c23)[C@@H](OC)C1
- GI50 (786-0 renal): 1.96 µM
- TGI (786-0 renal): 29.6 µM
- GI50 (MALME-3M melanoma): 10.9 µM
- TGI (MALME-3M melanoma): 24.4 µM
- GI50 (SF-268 CNS): 0.965 µM
- TGI (SF-268 CNS): 15.5 µM
- GI50 (UACC-62 melanoma): 2.89 µM
- TGI (UACC-62 melanoma): 14.3 µM
- GI50 (MOLT-4 leukemia): 2.02 µM
- TGI (MOLT-4 leukemia): 37.9 µM
- GI50 (M14 melanoma): 4.49 µM
- TGI (M14 melanoma): 20.3 µM
- GI50 (NCI-H226 lung): 0.97 µM
- TGI (NCI-H226 lung): 21.7 µM
- GI50 (HOP-92 NSCLC): 1.25 µM
- TGI (HOP-92 NSCLC): 4.87 µM
- GI50 (MDA-MB-435): 3 µM
- TGI (MDA-MB-435): 16.4 µM
- GI50 (OVCAR-8 ovarian): 4.74 µM
- TGI (OVCAR-8 ovarian): 24.5 µM
- GI50 (RXF 393 renal): 0.509 µM
- TGI (RXF 393 renal): 2.88 µM
- GI50 (U251 CNS): 0.991 µM
- TGI (U251 CNS): 17.5 µM
- GI50 (SNB-19 CNS): 3.41 µM
- TGI (SNB-19 CNS): 16.2 µM
- GI50 (HL-60(TB) leukemia): 3.31 µM
- TGI (HL-60(TB) leukemia): 13 µM
- GI50 (IGROV1 ovarian): 0.438 µM
- TGI (IGROV1 ovarian): 2.79 µM
- GI50 (A498 renal): 0.26 µM
- TGI (A498 renal): 1.14 µM
- GI50 (PC-3 prostate): 3.98 µM
- TGI (PC-3 prostate): 55.3 µM
- GI50 (RPMI-8226 leukemia): 3.29 µM
- TGI (RPMI-8226 leukemia): 22.7 µM
- GI50 (SK-MEL-5 melanoma): 11.5 µM
- TGI (SK-MEL-5 melanoma): 23.6 µM
- GI50 (OVCAR-4 ovarian): 2.15 µM
- TGI (OVCAR-4 ovarian): 14.1 µM
- GI50 (SF-295 CNS): 11.6 µM
- TGI (SF-295 CNS): 24.2 µM
- GI50 (TK-10 renal): 1.16 µM
- TGI (TK-10 renal): 10.6 µM
- GI50 (CCRF-CEM leukemia): 0.635 µM
- TGI (CCRF-CEM leukemia): > 100 µM
- GI50 (NCI-H460 lung): 4.13 µM
- TGI (NCI-H460 lung): 18.6 µM
- GI50 (OVCAR-3 ovarian): 2.28 µM
- TGI (OVCAR-3 ovarian): 18 µM
- GI50 (SF-539 CNS): 1.28 µM
- TGI (SF-539 CNS): 4.61 µM
- GI50 (SK-OV-3 ovarian): 0.225 µM
- TGI (SK-OV-3 ovarian): 1.2 µM
- GI50 (HT29 colon): 5.24 µM
- TGI (HT29 colon): 48.6 µM
- GI50 (T-47D breast): 2.01 µM
- TGI (T-47D breast): 17.6 µM
- GI50 (SN12C renal): 2.29 µM
- TGI (SN12C renal): 15.7 µM
- GI50 (MCF7 breast): 1.22 µM
- TGI (MCF7 breast): 13.8 µM
- GI50 (K-562 leukemia): 4.75 µM
- TGI (K-562 leukemia): > 100 µM
- GI50 (HCC-2998 colon): 5.47 µM
- TGI (HCC-2998 colon): 19.4 µM
- GI50 (DU-145 prostate): 1.45 µM
- TGI (DU-145 prostate): 15.4 µM
- GI50 (HOP-62 NSCLC): 4.12 µM
- TGI (HOP-62 NSCLC): 28.5 µM
- GI50 (HS 578T breast): 1.01 µM
- TGI (HS 578T breast): 4.31 µM
- GI50 (NCI/ADR-RES ovarian): 18 µM
- TGI (NCI/ADR-RES ovarian): 65.3 µM
- GI50 (SK-MEL-2 melanoma): 11.5 µM
- TGI (SK-MEL-2 melanoma): 25.7 µM
- GI50 (CAKI-1 renal): 1 µM
- TGI (CAKI-1 renal): 3.67 µM
- GI50 (OVCAR-5 ovarian): 3.18 µM
- TGI (OVCAR-5 ovarian): 48.4 µM
- GI50 (BT-549 breast): 0.992 µM
- TGI (BT-549 breast): 8.34 µM
- GI50 (HCT-15 colon): 4.74 µM
- TGI (HCT-15 colon): 24.3 µM
- GI50 (A549 NSCLC): 2.8 µM
- TGI (A549 NSCLC): 14.8 µM
- GI50 (SW-620 colon): 1.15 µM
- TGI (SW-620 colon): 16.2 µM
- GI50 (UO-31 renal): 1.55 µM
- TGI (UO-31 renal): 11 µM
- GI50 (ACHN renal): 0.993 µM
- TGI (ACHN renal): 13.3 µM
- GI50 (LOX IMVI melanoma): 0.894 µM
- TGI (LOX IMVI melanoma): 12.2 µM
- GI50 (HCT-116 colon): 1.24 µM
- TGI (HCT-116 colon): 14.3 µM
- GI50 (EKVX NSCLC): 1.23 µM
- TGI (EKVX NSCLC): 8.55 µM
- GI50 (NCI-H522 lung): 0.431 µM
- TGI (NCI-H522 lung): 17.6 µM
- GI50 (SR leukemia): 0.65 µM
- TGI (SR leukemia): > 100 µM
- GI50 (KM12 colon): 0.342 µM
- TGI (KM12 colon): 14 µM
- GI50 (SK-MEL-28 melanoma): 8.43 µM
- TGI (SK-MEL-28 melanoma): 25.9 µM
- GI50 (MDA-MB-231 breast): 2.84 µM
- TGI (MDA-MB-231 breast): 16.1 µM
- GI50 (SNB-75 CNS): 0.357 µM
- TGI (SNB-75 CNS): 2.42 µM
- GI50 (NCI-H23 lung): 4.1 µM
- TGI (NCI-H23 lung): 18.9 µM
- GI50 (COLO 205 colon): 2.83 µM
- TGI (COLO 205 colon): 14.6 µM
- GI50 (UACC-257 melanoma): 6.64 µM
- TGI (UACC-257 melanoma): 28 µM
